Test system: K98450-129-R-PDC complex spheroid growth, percent test/control
Assay: Anticancer human tumor K98450-129-R-PDC patient-derived colon adenocarcinoma cell line growth inhibition [RAS]
Settings: for IC50: curve of first compound; for viability, T/C: stronger effect = lower value
Procedure, shortened: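 Tumour cells grown as complex spheroids with HUVEC endothelial cells and mesenchymal stem cells, treated with RAS pathway inhibitor combinations. Each agent spans half-log steps from near clinical Cmax, or 10 microM where Cmax is unknown.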

[1] = second compound 0.000949 µM, first compound 0.0316 µM
[2] = second compound 0.000949 µM, first compound 0.1 µM
[3] = second compound 0.000949 µM, first compound 0.316 µM
[4] = second compound 0.000949 µM, first compound 1 µM
[5] = second compound 0.003 µM, first compound 0.0316 µM
[6] = second compound 0.003 µM, first compound 0.1 µM
[7] = second compound 0.003 µM, first compound 0.316 µM
[8] = second compound 0.003 µM, first compound 1 µM
[9] = second compound 0.00949 µM, first compound 0.0316 µM
[10] = second compound 0.00949 µM, first compound 0.1 µM
[11] = second compound 0.00949 µM, first compound 0.316 µM
[12] = second compound 0.00949 µM, first compound 1 µM
[13] = second compound 0.03 µM, first compound 0.0316 µM
[14] = second compound 0.03 µM, first compound 0.1 µM
[15] = second compound 0.03 µM, first compound 0.316 µM
[16] = second compound 0.03 µM, first compound 1 µM
[17] = second compound 0.0949 µM, first compound 0.0316 µM
[18] = second compound 0.0949 µM, first compound 0.1 µM
[19] = second compound 0.0949 µM, first compound 0.316 µM
[20] = second compound 0.0949 µM, first compound 1 µM
[21] = second compound 0.3 µM, first compound 0.0316 µM
[22] = second compound 0.3 µM, first compound 0.1 µM
[23] = second compound 0.3 µM, first compound 0.316 µM
[24] = second compound 0.3 µM, first compound 1 µM
[25] = second compound 0.000949 µM, first compound 3.16 µM
[26] = second compound 0.000949 µM, first compound 10 µM
[27] = second compound 0.003 µM, first compound 3.16 µM
[28] = second compound 0.003 µM, first compound 10 µM
[29] = second compound 0.00949 µM, first compound 3.16 µM
[30] = second compound 0.00949 µM, first compound 10 µM
[31] = second compound 0.03 µM, first compound 3.16 µM
[32] = second compound 0.03 µM, first compound 10 µM
[33] = second compound 0.0949 µM, first compound 3.16 µM
[34] = second compound 0.0949 µM, first compound 10 µM
[35] = second compound 0.3 µM, first compound 3.16 µM
[36] = second compound 0.3 µM, first compound 10 µM
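Also: spheroids exposed to agents for seven days before the viability readout.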
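For viability, T/C in this document: luminescence used as a proxy for viable cell amount.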

## CCN1CCN(Cc2ccc(Nc3ncc(F)c(-c4cc(F)c5nc(C)n(C(C)C)c5c4)n3)nc2)CC1 + CCn1c(-c2cccnc2C(C)OC)c2c3cc(ccc31)N1CCOC(CC(NC(=O)C(C(C)C)N(C)C(=O)C3(F)CCN(C(=O)C#CC(C)(C)N(C)C)CC3)C(=O)N3CCCC(N3)C(=O)OCC(C)(C)C2)C1
Second compound 0.000949 µM
  IC50: 239 nM
Second compound 0.003 µM
  IC50: 13.2 nM
Second compound 0.00949 µM
  IC50: < 3.16 nM
Second compound 0.03 µM
  IC50: < 3.16 nM
Second compound 0.0949 µM
  IC50: < 3.16 nM
Second compound 0.3 µM
  IC50: < 3.16 nM
Second compound 0.000949 µM, first compound 0.00316 µM
  viability, T/C: 72.8%
Second compound 0.000949 µM, first compound 0.01 µM
  viability, T/C: 68.7%
[1]
  viability, T/C: 70.3%
[2]
  viability, T/C: 54.4%
[3]
  viability, T/C: 44.9%
[4]
  viability, T/C: 52.2%
Second compound 0.003 µM, first compound 0.00316 µM
  viability, T/C: 60%
Second compound 0.003 µM, first compound 0.01 µM
  viability, T/C: 52.6%
[5]
  viability, T/C: 48.2%
[6]
  viability, T/C: 39.2%
[7]
  viability, T/C: 43%
[8]
  viability, T/C: 47.4%
Second compound 0.00949 µM, first compound 0.00316 µM
  viability, T/C: 49.7%
Second compound 0.00949 µM, first compound 0.01 µM
  viability, T/C: 41.7%
[9]
  viability, T/C: 38.9%
[10]
  viability, T/C: 34.5%
[11]
  viability, T/C: 36.6%
[12]
  viability, T/C: 43.4%
Second compound 0.03 µM, first compound 0.00316 µM
  viability, T/C: 37.6%
Second compound 0.03 µM, first compound 0.01 µM
  viability, T/C: 37.6%
[13]
  viability, T/C: 34.3%
[14]
  viability, T/C: 35.3%
[15]
  viability, T/C: 43.8%
[16]
  viability, T/C: 45.9%
Second compound 0.0949 µM, first compound 0.00316 µM
  viability, T/C: 39.6%
Second compound 0.0949 µM, first compound 0.01 µM
  viability, T/C: 34.4%
[17]
  viability, T/C: 34.5%
[18]
  viability, T/C: 32.1%
[19]
  viability, T/C: 38.9%
[20]
  viability, T/C: 48.8%
Second compound 0.3 µM, first compound 0.00316 µM
  viability, T/C: 30.8%
Second compound 0.3 µM, first compound 0.01 µM
  viability, T/C: 32.1%
[21]
  viability, T/C: 32.1%
[22]
  viability, T/C: 28.6%
[23]
  viability, T/C: 36.1%
[24]
  viability, T/C: 41.8%

## C[C@@H](NC(=O)c1ncnc(N)c1Cl)c1ncc(C(=O)Nc2cc(C(F)(F)F)c(Cl)cn2)s1 + CCn1c(-c2cccnc2C(C)OC)c2c3cc(ccc31)N1CCOC(CC(NC(=O)C(C(C)C)N(C)C(=O)C3(F)CCN(C(=O)C#CC(C)(C)N(C)C)CC3)C(=O)N3CCCC(N3)C(=O)OCC(C)(C)C2)C1
Second compound 0.000949 µM
  IC50: > 10000 nM
Second compound 0.003 µM
  IC50: > 10000 nM
Second compound 0.00949 µM
  IC50: > 10000 nM
Second compound 0.03 µM
  IC50: < 31.6 nM
Second compound 0.0949 µM
  IC50: < 31.6 nM
Second compound 0.3 µM
  IC50: < 31.6 nM
[1]
  viability, T/C: 87.9%
[2]
  viability, T/C: 87.2%
[3]
  viability, T/C: 87%
[4]
  viability, T/C: 70.2%
[25]
  viability, T/C: 54.4%
[26]
  viability, T/C: 61.5%
[5]
  viability, T/C: 57.9%
[6]
  viability, T/C: 64.3%
[7]
  viability, T/C: 63.5%
[8]
  viability, T/C: 61.6%
[27]
  viability, T/C: 66.2%
[28]
  viability, T/C: 53.7%
[9]
  viability, T/C: 57.8%
[10]
  viability, T/C: 55%
[11]
  viability, T/C: 54.5%
[12]
  viability, T/C: 55.3%
[29]
  viability, T/C: 59.2%
[30]
  viability, T/C: 48.6%
[13]
  viability, T/C: 40.3%
[14]
  viability, T/C: 44.5%
[15]
  viability, T/C: 53.6%
[16]
  viability, T/C: 61.6%
[31]
  viability, T/C: 54.1%
[32]
  viability, T/C: 46.9%
[17]
  viability, T/C: 39.2%
[18]
  viability, T/C: 40.5%
[19]
  viability, T/C: 53.3%
[20]
  viability, T/C: 55%
[33]
  viability, T/C: 62.3%
[34]
  viability, T/C: 49.9%
[21]
  viability, T/C: 32.4%
[22]
  viability, T/C: 43.9%
[23]
  viability, T/C: 35.2%
[24]
  viability, T/C: 53.7%
[35]
  viability, T/C: 56.3%
[36]
  viability, T/C: 39.3%

## Cc1nc(N2CCC3(CC2)COC(C)C3N)c(CO)nc1Sc1ccnc(N)c1Cl (stereo unspecified) + CCn1c(-c2cccnc2C(C)OC)c2c3cc(ccc31)N1CCOC(CC(NC(=O)C(C(C)C)N(C)C(=O)C3(F)CCN(C(=O)C#CC(C)(C)N(C)C)CC3)C(=O)N3CCCC(N3)C(=O)OCC(C)(C)C2)C1
Second compound 0.000949 µM
  IC50: 365 nM
Second compound 0.003 µM
  IC50: 41.5 nM
Second compound 0.00949 µM
  IC50: < 31.6 nM
Second compound 0.03 µM
  IC50: < 31.6 nM
Second compound 0.0949 µM
  IC50: < 31.6 nM
Second compound 0.3 µM
  IC50: < 31.6 nM
[1]
  viability, T/C: 71.8%
[2]
  viability, T/C: 64.7%
[3]
  viability, T/C: 54.1%
[4]
  viability, T/C: 27.5%
[25]
  viability, T/C: 12.1%
[26]
  viability, T/C: 9.55%
[5]
  viability, T/C: 53.4%
[6]
  viability, T/C: 39%
[7]
  viability, T/C: 16.9%
[8]
  viability, T/C: 10.4%
[27]
  viability, T/C: 8.15%
[28]
  viability, T/C: 7.47%
[9]
  viability, T/C: 32.7%
[10]
  viability, T/C: 21.6%
[11]
  viability, T/C: 12.3%
[12]
  viability, T/C: 8.57%
[29]
  viability, T/C: 8.2%
[30]
  viability, T/C: 6.2%
[13]
  viability, T/C: 26.1%
[14]
  viability, T/C: 14.9%
[15]
  viability, T/C: 10.7%
[16]
  viability, T/C: 10.1%
[31]
  viability, T/C: 6.29%
[32]
  viability, T/C: 6.11%
[17]
  viability, T/C: 20.9%
[18]
  viability, T/C: 16%
[19]
  viability, T/C: 8.78%
[20]
  viability, T/C: 8.48%
[33]
  viability, T/C: 8.98%
[34]
  viability, T/C: 6.05%
[21]
  viability, T/C: 21.7%
[22]
  viability, T/C: 14.2%
[23]
  viability, T/C: 10.3%
[24]
  viability, T/C: 8.27%
[35]
  viability, T/C: 8.02%
[36]
  viability, T/C: 6.57%

Source: PubChem BioAssay AID2060891 (Molecular Pharmacology Branch, DTP, NCI, 2025)
